IC50 and EC50 data for nine compounds are collected here from patent US10981932B2, “Macrocyclic indole derivatives” (Bayer Aktiengesellschaft, priority 2016, dated 2021).

Read-outs that look alike come from different tables or passages of the source. Bounds are passed on as bounds.

For data set [1], the target named is MCL-1 (Homo sapiens, UniProt Q07820). In words: Protein-protein interaction assay MCL-1/Noxa BH3 peptide (MCL-1 assay), TR-FRET. It is filed as binding. The note with it: MBP-MCL-1 / Noxa BH3-derived peptide, median. The gist of the method: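 TR-FRET, 665/622 nm emission ratio (excitation 330–350 nm), measured MCL-1/Noxa complex formation. 1 nM MBP-MCL-1, 50 mM Tris/HCl pH 7, 0.1% BGG, 2 mM DTT. Incubation 1 h at 22 °C, then overnight at 4 °C. IC50 by 4-parameter regression, normalized to DMSO (0%) and no-MCL-1 (100%) controls.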
MCL-1, sequence (Q07820 whole entry): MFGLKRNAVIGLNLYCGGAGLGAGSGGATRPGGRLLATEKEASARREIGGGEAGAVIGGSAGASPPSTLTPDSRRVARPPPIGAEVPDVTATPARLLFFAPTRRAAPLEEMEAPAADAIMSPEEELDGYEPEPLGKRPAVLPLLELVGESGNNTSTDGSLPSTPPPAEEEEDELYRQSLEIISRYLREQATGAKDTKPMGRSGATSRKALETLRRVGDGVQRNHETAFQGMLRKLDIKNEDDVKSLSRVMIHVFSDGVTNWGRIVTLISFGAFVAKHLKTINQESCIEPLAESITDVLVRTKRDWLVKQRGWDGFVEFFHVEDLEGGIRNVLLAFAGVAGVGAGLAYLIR

For data set [2], the system named is SUDHL5. In words: Induction of caspase-3/7 activity (Caspase-Glo 3/7), SUDHL5. The class given is cell-based. To be noted: Homo sapiens, SU-DHL-5, 3 h, caspase-3/7 induction, SUDHL5 cells, 3 h treatment; median. Put shortly:
(§1)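 DLBCL cells treated with compounds for 3 h at 37 °C, then caspase-3/7 activity read by Caspase-Glo 3/7 luminescence. Medium-only background subtracted; EC50 fitted with C0 fixed at 1 and top set to the reference compound's maximal induction.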

The test system of data set [3] is SUDHL10. Put plainly: Induction of caspase-3/7 activity (Caspase-Glo 3/7), SUDHL10. The class given is cell-based. To be noted: caspase-3/7 induction, SUDHL10 cells, 3 h treatment, median. The gist of the method:
as §1

The test system of data set [4] is SUDHL5. In words: Anti-proliferative effect (CellTiter-Glo, 72 h), SUDHL5. The class given is cell-based. The note with it: Homo sapiens, SU-DHL-5, 72 h, SUDHL5 cells, antiproliferation, median, read-out: Antiproli SUDHL5 [M] (median). The gist of the method: (§2)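 Cells were treated with compounds for 72 h at 37 °C in a humidified incubator, and viability was measured by CellTiter-Glo luminescence. A parallel day 0 plate, read the same way, gave the time zero baseline.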

Data set [5] deals with A2780. In words: Anti-proliferative effect (CellTiter-Glo, 72 h), A2780. The class given is cell-based. To be noted: A2780 cells, median, read-out: IC50 antiproliferation assay A2780 [M] (median). The gist of the method: as §2
The test system of data set [6] is MV-4-11. In words: Anti-proliferative effect (CellTiter-Glo, 72 h), MV-4-11. It is filed as cell-based. To be noted: Homo sapiens, MV4-11, 72 h, MV-4-11 cells, median, read-out: IC50 antiproliferation assay MV-4-11 [M] (median). On the procedure:
Assessment of the Anti-Proliferative Effect of Compounds in Different Cell Lines
The impact of compounds on the proliferation of different cell lines was assessed using the CellTiter-Glo® Luminescent Cell Viability reagent from Promega (G7573). Of note, SUDHL10 and SUDHL5 (DLBCL), NCI-H929 (Multiple Myeloma), A2780 (ovarian carcinoma) as well as MV-4-11(AML) cells are sensitive to MCL-1 inhibition.
In parallel, cells were plated in a reference (day 0) plate for time zero determination.
Rim wells were excluded. The cells were incubated for 72 h hours in a humidified incubator at 37° C. The day 0 plate was measured by adding 30 μl/well of CTG solution (CellTiter-Glo® Luminescent Cell Viability reagent, Promega G7573) to time zero wells in the reference plate followed by a 10 minutes incubation and luminescence reading at 0.1 ms, using the PHERAstar FS microplate reader (BMG Labtech).
After 72 h incubation, the treated plates were measured in the same way as the day 0 plate mentioned above.

Data set [7] relates to SUDHL5. Put plainly: Induction of cytotoxicity (CellTiter-Glo, 5 h), SUDHL5. To be noted: Homo sapiens, SU-DHL-5, 5 h.
In data set [8] the test system is SUDHL10. Put plainly: Induction of cytotoxicity (CellTiter-Glo, 5 h), SUDHL10.
Setting [9] is: read-out: Cytotox SUDHL5 [M] (median), SUDHL5 cells, cytotoxicity induction, CellTiter-Glo, 5 h incubation, median.
Setting [10] is: Homo sapiens, SU-DHL10, 5 h, read-out: Cytotox SUDHL10 [M] (median), SUDHL10 cells, cytotoxicity induction, CellTiter-Glo, 5 h incubation, median.
Where [11] appears, read: read-out: Cytotox SUDHL5 [M] (median), SUDHL5 cells, cytotoxicity induction, CellTiter-Glo, 5 h, median.
Where [12] appears, read: Homo sapiens, SU-DHL10, 5 h, read-out: Cytotox SUDHL10 [M] (median), SUDHL10 cells, cytotoxicity induction, CellTiter-Glo, 5 h, median.

As for `CN1CCCCn2c(C(=O)O)c(CCCOc3cccc4ccccc34)c3cccc(c32)-c2c(CC(F)(F)F)nn(C)c2C1` (racemic) [Example 222, (rac)-1,14-dimethyl-7-[3-(naphthalen-1-yloxy)propyl]-3-(2,2,2-trifluoroethyl)-10,11,12,13,14,15-hexahydro-1H-pyrazolo[3′,4′:8,9][1,6]diazacycloundecino[10,11,1-hi]indole-8-carboxylic Acid], the IC50 amounted to 0.00597 µM in data set [1]; 9.85e-06 M in data set [4] (72 h incubation); 2.46e-05 M in data set [5] (Homo sapiens, A2780, 72 h); 7.87e-06 M in data set [6]; 1.15e-05 M in data set [7] (setting [9]); 2.01e-05 M in data set [8] (setting [10]). The EC50 in data set [2] is 14.4 µM; in data set [3] (Homo sapiens, SU-DHL10, 3 h) it was 18.2 µM.

For `CN1CCCCn2c(C(=O)O)c(CCCOc3cccc4ccccc34)c3cccc(c32)-c2c(/C=C/F)nn(C)c2C1` (racemic) [Example 225, (rac)-3-[(E)-2-fluoroethenyl]-1,14-dimethyl-7-[3-(naphthalen-1-yloxy)propyl]-10,11,12,13,14,15-hexahydro-1H-pyrazolo[3′,4′:8,9][1,6]diazacycloundecino[10,11,1-hi]indole-8-carboxylic Acid], the IC50 in data set [1] turned out to be 0.0032 µM; in data set [4] (72 h incubation), 7.21e-06 M; in data set [5] (Homo sapiens, A2780, 72 h), 2.33e-05 M; in data set [6], 1.85e-05 M; in data set [7] (setting [9]), 1.32e-05 M; in data set [8] (setting [10]) it was 3.27e-05 M. Besides, in data set [8] (read-out: Cytotox SUDHL10 [M] (median), SUDHL10 cells, cytotoxicity induction, CellTiter-Glo, 5 h incubation, median), the IC50 was over 3.3e-05 M. For the same compound, the EC50 is 16.5 µM in data set [2]; 19.6 µM in data set [3] (Homo sapiens, SU-DHL10, 3 h); over 33 µM in data set [3].

Consider `CCc1c2c(nn1C)COCCCCn1c(C(=O)O)c(CCCOc3cccc4c3CCCC4)c3cccc-2c31` (racemic) [Example 290, (rac)-12-ethyl-11-methyl-1-(3-((5,6,7,8-tetrahydronaphthalen-1-yl)oxy)propyl)-4,5,6,7,9,11-hexahydropyrazolo[4′,3′:9,10][1]oxa[6]azacycloundecino[8,7,6-hi]indole-2-carboxylic Acid], for which the IC50 in data set [1] was 0.0028 µM; in data set [4] (72 h), 5.06e-06 M; in data set [5], 2.62e-05 M; in data set [5] (Homo sapiens, A2780, 72 h), over 3.3e-05 M; in data set [6], 9.57e-06 M; in data set [7] (setting [11]), 3.61e-06 M. In data set [8] (setting [12]), the IC50 stood at 1.19e-05 M. Besides, the EC50 amounted to 3.38 µM in data set [2] and 13.6 µM in data set [3] (Homo sapiens, SU-DHL10, 3 h).

For `CCc1nn(C)c2c1-c1cccc3c(CCCOc4cccc5c4CCCC5)c(C(=O)O)n(c13)CCCCOC2` (racemic) [Example 291, (rac)-12-ethyl-10-methyl-1-(3-((5,6,7,8-tetrahydronaphthalen-1-yl)oxy)propyl)-4,5,6,7,9,10-hexahydropyrazolo[4′,3′:9,10][1]oxa[6]azacycloundecino[8,7,6-hi]indole-2-carboxylic Acid], the IC50 was 0.00238 µM in data set [1]; 8.71e-06 M in data set [4] (72 h); over 3.3e-05 M in data set [5] (Homo sapiens, A2780, 72 h); 1.82e-05 M in data set [6]; 8.6e-06 M in data set [7] (setting [11]); over 3.3e-05 M in data set [8] (setting [12]). For the same compound, the EC50 in data set [2] was 8.51 µM; in data set [3] (Homo sapiens, SU-DHL10, 3 h) it was 32 µM; in data set [3], over 33 µM.

As for `Cc1ccc2c(CCCOc3cccc4cc(F)ccc34)c(C(=O)O)n3c2c1-c1c(nn(CCN2CCOCC2)c1C)COCCCC3` (racemic) [Example 292, (rac)-7-{3-[(6-fluoronaphthalen-1-yi)oxy]propyl}-3,4-dimethyl-2-[2-(morpholin-4-yl)ethyl]-2,10,11,12,13,15-hexahydropyrazolo[4′,3′:9,10][1,6]oxazacycloundecino[8,7,6-hi]indole-8-carboxylic Acid], the IC50 amounted to 0.00184 µM in data set [1]; 1.59e-06 M in data set [4] (72 h); 1.58e-05 M in data set [5] (Homo sapiens, A2780, 72 h); 8.52e-06 M in data set [6]; 1.13e-06 M in data set [7] (setting [11]); 1.52e-06 M in data set [8] (setting [12]). Also, the EC50 was 0.671 µM in data set [2] and 1.21 µM in data set [3] (Homo sapiens, SU-DHL10, 3 h).

As for `Cc1c2c(nn1C)COCCCCn1c(C(=O)O)c(CCCOc3cccc4cc(Cl)ccc34)c3cccc-2c31` (racemic) [Example 295, (rac)-7-{3-[(6-chloronaphthalen-1-yl)oxy]propyl}-2,3-dimethyl-2,10,11,12,13,15-hexahydropyrazolo[4′,3′:9,10][1,6]oxazacycloundecino[8,7,6-hi]indole-8-carboxylic Acid], the IC50 in data set [1] was determined as 0.00528 µM; in data set [4] (72 h), 9.86e-06 M; in data set [5] (Homo sapiens, A2780, 72 h) it was 1.72e-05 M; in data set [6], 1.58e-05 M; in data set [7] (setting [11]), 1.61e-05 M; in data set [8] (setting [12]), 1.8e-05 M. The concentration for a half-maximal effect (EC50) in data set [2] is 17 µM; in data set [3] (Homo sapiens, SU-DHL10, 3 h), 19 µM.

As for `CCc1nn(C)c2c1-c1cccc3c(CCCOc4cccc5c(F)cccc45)c(C(=O)O)n(c13)CCCCOC2` (racemic) [Example 298, (rac)-3-ethyl-7-{3-[(5-fluoronaphthalen-1-yl)oxy]propyl}-1-methyl-1,10,11,12,13,15-hexahydropyrazolo[4′,3′:9,10][1,6]oxazacycloundecino[8,7,6-hi]indole-8-carboxylic Acid], the IC50 in data set [1] was 0.0017 µM; in data set [4] (72 h), 1.09e-05 M; in data set [5] (Homo sapiens, A2780, 72 h), 2.66e-05 M; in data set [6] it was 9.4e-06 M; in data set [7] (setting [11]), 9.1e-06 M; in data set [8] (setting [12]), 2.27e-05 M. Moreover, the EC50 is 8.78 µM in data set [2] and 20.5 µM in data set [3] (Homo sapiens, SU-DHL10, 3 h).

In the case of `Cc1c2c(nn1C)COCCCCn1c(C(=O)O)c(CCCOc3cccc4cc(F)ccc34)c3cccc-2c31` (racemic) [Example 301, (rac)-7-{3-[(6-fluoronaphthalen-1-yl)oxy]propyl}-2,3-dimethyl-2,10,11,12,13,15-hexahydropyrazolo[4′,3′:9,10][1,6]oxazacycloundecino[8,7,6-hi]indole-8-carboxylic Acid], the IC50 was determined as 0.00143 µM in data set [1]; 2e-06 M in data set [4] (72 h); 1.56e-05 M in data set [5] (Homo sapiens, A2780, 72 h); 5.99e-06 M in data set [6]; 1.6e-06 M in data set [7] (setting [11]); 3.5e-06 M in data set [8] (setting [12]). The EC50 in data set [2] was 1.19 µM; in data set [3] (Homo sapiens, SU-DHL10, 3 h), 3.29 µM.

For the compound `CCc1nn(C)c2c1-c1cccc3c(CCCOc4cccc5cc(Cl)ccc45)c(C(=O)O)n(c13)CCCCOC2` (racemic) [Example 304, (rac)-11-(3-((6-chloronaphthalen-1-yl)oxy)propyl)-12-ethyl-10-methyl-4,5,6,7,9,10-hexahydropyrazolo[4′,3′:9,10][1,6]oxaazacycloundecino[8,7,6-hi]indole-2-carboxylic Acid], the IC50 is 0.0105 µM in data set [1]; 9.84e-06 M in data set [4] (72 h); 1.34e-05 M in data set [5] (Homo sapiens, A2780, 72 h); 3.13e-05 M in data set [6]; over 3.3e-05 M in data set [7] (setting [11]); over 3.3e-05 M in data set [8] (setting [12]). Further, the EC50 in data set [2] was over 33 µM; in data set [3] (Homo sapiens, SU-DHL10, 3 h) it was over 33 µM.
